Counter-ions that a name gives are not always drawn.
What follows are compounds tested on LPS-induced pulmonary neutrophilia in rats (assay: In Vivo Assay 1: LPS induced pulmonary neutrophilia in rats, intratracheal administration). Conditions: after i.t. administration to the rat as a dry powder; preliminary tests.
Set-up: species or system rat
Source text: This assay is an animal model of acute inflammation in the lung—specifically neutrophilia induced by lipopolysaccharide (LPS)—and allows the study of putative inhibition of such neutrophilia (anti-inflammatory effect) by an intratracheally (i.t.) administered PDE4 inhibitor (“drug”). The PDE4 inhibitors are suitably in dry powder, aqueous solution or aqueous suspension form. I.t. administration is one model of inhaled administration, allowing topical delivery to the lung.
Animals: Male CD (Sprague Dawley Derived) rats supplied by Charles River, United Kingdom are housed in groups of 5 rats per cage, acclimatised after delivery for at least 7 days with bedding/nesting material regularly changed, fed on SDS diet R1 pelleted food given ad lib, and supplied with daily-changed pasteurised animal grade drinking water.
Device for dry powder administration: For these studies, a Penn Century DP-4 dry powder intratracheal (i.t.) delivery device (insufflator) is used for administration of a dry powder blend of vehicle (inhalation grade lactose) and the PDE4 inhibitor compound or salt of the invention (“drug”). Each device is numbered and the sample loading chamber is unscrewed from the main device and weighed. The i.t. delivery needle is also weighed. The drug+lactose blend or inhalation grade lactose (vehicle control) is then added to the sample chamber and this is then re-weighed. The sample chamber is fitted back on to the main device to prevent any drug being lost. This procedure is repeated for all of the Penn century devices to be used in the study (one separate device for each animal). After dosing to the animals, the sample chambers and needles are re-weighed in order to determine the amount of sample that was expelled from the device.
Device for aqueous solution administration: A blunt dosing needle, whose forward end is slightly angled to the needle axis, is used, with a flexible plastic portex canula inserted into the needle. The portex cannula is inserted into the lumen of the blunt stainless steel dosing needle and this is carefully inserted into the back of the animal's throat and into the trachea via the larynx. A known volume (200 microlitres) of the vehicle (0.2% Tween 80™ in saline) or of the solution (or suspension) drug composition is administered into the trachea using a plastic syringe that is attached to the portex cannula and dosing needle. A new internal cannula is used for each different drug group. After dosing, the needle is removed from the trachea and the animals are removed from the table and continually observed until they recover from the effects of anaesthesia. The animals are then returned to the holding cages and given free access to food and water, and are observed and any unusual behavioural changes noted. (Aqueous suspensions can be handled generally similarly.)
Drugs and Materials: Lipopolysaccharide (LPS) (Serotype:0127:B8, e.g. from Sigma, UK; e.g. L3129 prepared by phenol extraction) is dissolved in phosphate-buffered saline (PBS).
For dry powder, aqueous solution or aqueous suspension administration, PDE4 inhibitors are preferably used in size-reduced (e.g. micronised) form, for example according to the Micronisation Example(s) disclosed herein.
For dry powder administration of the drug, the PDE4 inhibitor compound or salt of the invention (drug) is administered as a dry powder blended with inhalation-grade (respiratory-grade) lactose, i.e. as a dry powder composition. The target quantity of dry powder composition administered i.t. to each animal is 2 mg. This remains constant throughout the studies. To achieve different doses, blends of the drug dry powder and lactose, containing different concentrations of the PDE4 inhibitor compound or salt of the invention (drug), are prepared. […]

| SMILES | duration of action in i.t. rat LPS-induced neutrophilia model [h] |
| --- | --- |
| CCc1nc2c(cnn2CC)c(NC2CCOCC2)c1CNC(=O)c1ccc(NC(=O)CCCCCCCN(C)CCO)cc1 [N-{[1,6-diethyl-4-(tetrahydro-2H-pyran-4-ylamino)-1H-pyrazolo[3,4-b]pyridin-5-yl]methyl}-4-({8-[(2-hydroxyethyl)(methyl)amino]octanoyl}amino)benzamide] | 4 |

Same assay, conditions: after i.t. administration to the rat as an aqueous solution; preliminary tests

| SMILES | duration of action in i.t. rat LPS-induced neutrophilia model [h] |
| --- | --- |
| CCc1nc2c(cnn2CC)c(NC2CCOCC2)c1CNC(=O)c1ccc(NC(=O)CCCCCCCN(C)CCO)cc1 [N-{[1,6-diethyl-4-(tetrahydro-2H-pyran-4-ylamino)-1H-pyrazolo[3,4-b]pyridin-5-yl]methyl}-4-({8-[(2-hydroxyethyl)(methyl)amino]octanoyl}amino)benzamide] | ≥ 2 |

Each compound was assayed against T1, PDE4B (human recombinant) (Homo sapiens, UniProt Q07343) (assay: Inhibition of PDE4B activity (FP and/or SPA assay)). Conditions: generally FP assay; one reading or average of n readings; read-out: PDE4B pIC50 (generally in FP assay) (±about 0.5) (converted).
T1 construct: made in house; host or cells: Saccharomyces cerevisiae strain GL62 (PDE-deficient yeast)
Assay type: biochemical
Source text: Human recombinant PDE4B, in particular the 2B splice variant thereof (HSPDE4B2B), is disclosed in WO 94/20079 and also M. M. McLaughlin et al., “A low Km, rolipram-sensitive, cAMP-specific phosphodiesterase from human brain: cloning and expression of cDNA, biochemical characterisation of recombinant protein, and tissue distribution of mRNA”, J. Biol. Chem., 1993, 268, 6470-6476. For example, in Example 1 of WO 94/20079, human recombinant PDE4B is described as being expressed in the PDE-deficient yeast Saccharomyces cerevisiae strain GL62, e.g. after induction by addition of 150 uM CuSO4, and 100,000×g supernatant fractions of yeast cell lysates are described for use in the harvesting of PDE4B enzyme.
The ability of compounds to inhibit catalytic activity at PDE4B or 4D (human recombinant), PDE3 (from bovine aorta), PDE5 (human recombinant) or PDE6 (from bovine retina) can optionally be determined by Scintillation Proximity Assay (SPA) in a 96-well format.
Test compounds (as a solution in DMSO, suitably about 2 microlitre (ul) volume of DMSO solution) are preincubated at ambient temperature (room temperature, e.g. 19-23° C.) in Wallac Isoplates (code 1450-514) with PDE enzyme in 50 mM Tris-HCl buffer pH 7.5, 8.3 mM MgCl2, 1.7 mM EGTA, 0.05% (w/v) bovine serum albumin for 10-30 minutes (usually 30 minutes). The enzyme concentration is adjusted so that no more than 20% hydrolysis of the substrate defined below occurs in control wells without compound, during the incubation. For the PDE3, PDE4B and PDE4D assays, [5′,8-^3H]Adenosine 3′,5′-cyclic phosphate (Amersham Pharmacia Biotech, code TRK.559; or Amersham Biosciences UK Ltd, Pollards Wood, Chalfont St Giles, Buckinghamshire HP8 4SP, UK) is added to give 0.05uCi per well and about 10 nM final concentration. For the PDE5 and PDE6 assays, [8^−3H]Guanosine 3′,5′-cyclic phosphate (Amersham Pharmacia Biotech, code TRK.392) is added to give 0.05uCi per well and about 36 nM final concentration. Plates containing assay mixture, suitably approx. 100 ul volume of assay mixture, are mixed on an orbital shaker for 5 minutes and incubated at ambient temperature for 1 hour. Phosphodiesterase SPA beads (Amersham Pharmacia Biotech, code RPNQ 0150) are added (about 1 mg per well) to terminate the assay. Plates are sealed and shaken and allowed to stand at ambient temperature for 35 minutes to 1 hour (suitably 35 minutes) to allow the beads to settle. Bound radioactive product is measured using a WALLAC TRILUX 1450 Microbeta scintillation counter. For inhibition curves, 10 concentrations (e.g. 1.5 nM-30 uM) of each compound are assayed. Curves are analysed using ActivityBase and XLfit (ID Business Solutions Limited, 2 Ocean Court, Surrey Research Park, Guildford, Surrey GU2 7QB, United Kingdom) Results are expressed as pIC50 values.
The ability of compounds to inhibit catalytic activity at PDE4B (human recombinant) or PDE4D (human recombinant) can optionally be determined by IMAP Fluorescence Polarisation (FP) assay (IMAP Explorer kit, available from Molecular Devices Corporation, Sunnydale, Calif., USA; Molecular Devices code: R8062) in 384-well format.
The IMAP FP assay is able to measure PDE activity in an homogenous, non-radioactive assay format. The FP assay uses the ability of immobilised trivalent metal cations, coated onto nanoparticles (tiny beads), to bind the phosphate group of Fl-AMP that is produced on the hydrolysis of fluorescein-labelled (Fl) cyclic adenosine mono-phosphate (Fl-cAMP) to the non-cyclic Fl-AMP form. […] Binding of Fl-AMP product to the beads (coated with the immobilised trivalent cations) slows the rotation of the bound Fl-AMP and leads to an increase in the fluorescence polarisation ratio of parallel to perpendicular light. Inhibition of the PDE reduces/inhibits this signal increase. […]

T1 sequence (Q07343 1-564 isoform Q07343-2): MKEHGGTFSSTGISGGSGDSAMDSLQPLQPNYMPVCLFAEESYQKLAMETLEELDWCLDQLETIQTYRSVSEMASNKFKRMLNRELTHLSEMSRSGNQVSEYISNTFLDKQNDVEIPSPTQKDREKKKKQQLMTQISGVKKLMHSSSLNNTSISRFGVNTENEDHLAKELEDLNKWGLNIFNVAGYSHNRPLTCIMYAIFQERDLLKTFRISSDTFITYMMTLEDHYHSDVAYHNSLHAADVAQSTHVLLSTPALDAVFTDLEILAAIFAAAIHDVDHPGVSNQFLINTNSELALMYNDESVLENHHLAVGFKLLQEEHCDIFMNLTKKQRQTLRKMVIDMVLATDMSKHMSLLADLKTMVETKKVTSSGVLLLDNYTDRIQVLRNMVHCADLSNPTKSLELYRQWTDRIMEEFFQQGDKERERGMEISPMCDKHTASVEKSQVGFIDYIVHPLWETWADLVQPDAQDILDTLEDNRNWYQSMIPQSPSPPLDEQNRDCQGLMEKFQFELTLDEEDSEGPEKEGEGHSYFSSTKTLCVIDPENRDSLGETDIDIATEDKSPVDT

| IC50 [nM] | SMILES |
| --- | --- |
| ~0.0631 | CCc1nc2c(cnn2CC)c(NC2CCOCC2)c1CNC(=O)c1ccc(CCCCOCCCCN2CCCC2)cc1 [Example 21, formate salt of N-{[1,6-diethyl-4-(tetrahydro-2H-pyran-4-ylamino)-1H-pyrazolo[3,4-b]pyridin-5-yl]methyl}-4-(4-{[4-(1-pyrrolidinyl)butyl]oxy}butyl)benzamide] |
| ~1 | CCc1nc2c(cnn2CC)c(NC2CCOCC2)c1CNC(=O)c1ccc(NC(=O)CCCCCCCCCCN(C)CCO)cc1 [Example 34, N-{[1,6-diethyl-4-(tetrahydro-2H-pyran-4-ylamino)-1H-pyrazolo[3,4-b]pyridin-5-yl]methyl}-4-({11-[(2-hydroxyethyl)(methyl)amino]undecanoyl}amino)benzamide] |
| ~0.1 | CCc1nc2c(cnn2CC)c(NC2CCOCC2)c1CNC(=O)c1ccc(CCCCOCCCCN2CCOCC2)cc1 [Example 20, formate salt of N-{[1,6-diethyl-4-(tetrahydro-2H-pyran-4-ylamino)-1H-pyrazolo[3,4-b]pyridin-5-yl]methyl}-4-(4-{[4-(4-morpholinyl)butyl]oxy}butyl)benzamide] |
| ~0.0794 | CCc1nc2c(cnn2CC)c(NC2CCOCC2)c1CNC(=O)c1ccc(NC(=O)CCCCCN(C)CCO)cc1 [Example 31, N-{[1,6-diethyl-4-(tetrahydro-2H-pyran-4-ylamino)-1H-pyrazolo[3,4-b]pyridin-5-yl]methyl}-4-({6-[(2-hydroxyethyl)(methyl)amino]hexanoyl}amino)benzamide] |

The next lines start with the compound.

| SMILES | IC50 [nM] |
| --- | --- |
| CCc1nc2c(cnn2CC)c(NC2CCOCC2)c1CNC(=O)c1ccc(NC(=O)CCCCCCCN2CCC[C@H]2COC)cc1 [Example 12, N-{[1,6-diethyl-4-(tetrahydro-2H-pyran-4-ylamino)-1H-pyrazolo[3,4-b]pyridin-5-yl]methyl}-4-[(8-{(2S)-2-[(methyloxy)methyl]-1-pyrrolidinyl}octanoyl)amino]benzamide trifluoroacetate] | ~0.0316 |
| CCc1nc2c(cnn2CC)c(NC2CCOCC2)c1CNC(=O)c1ccc(NC(=O)CCCCCCCN(C)CCO)cc1 [Example 1C, N-{[1,6-diethyl-4-(tetrahydro-2H-pyran-4-ylamino)-1H-pyrazolo[3,4-b]pyridin-5-yl]methyl}-4-({8-[(2-hydroxyethyl)(methyl)amino]octanoyl}amino)benzamide] | ~0.0501 |
| CCc1nc2c(cnn2CC)c(NC2CCOCC2)c1CNC(=O)c1ccc(NC(=O)CCCCCCCN2CCOCC2)cc1 [Example 17, formate salt of N-{[1,6-diethyl-4-(tetrahydro-2H-pyran-4-ylamino)-1H-pyrazolo[3,4-b]pyridin-5-yl]methyl}-4-{[8-(4-morpholinyl)octanoyl]amino}benzamide] | ~0.158 |
| CCc1nc2c(cnn2CC)c(NC2CCOCC2)c1CNC(=O)c1ccc(NC(=O)CCCCCCCN2CCC[C@@H]2COC)cc1 [Example 11, N-{[1,6-diethyl-4-(tetrahydro-2H-pyran-4-ylamino)-1H-pyrazolo[3,4-b]pyridin-5-yl]methyl}-4-[(8-{(2R)-2-[(methyloxy)methyl]-1-pyrrolidinyl}octanoyl)amino]benzamide trifluoroacetate] | ~0.0501 |

From patent publication US20090325952A1, “PYRAZOLO[3,4-B]PYRIDINE COMPOUNDS, AND THEIR USE AS PDE4 INHIBITORS” (Glaxo Group Limited, priority 2006, published 2009)
